# Measurements taken from US20250064789A1, “KETOAMIDE DERIVATIVES AND PHARMACEUTICAL USES THEREOF” (priority 2022, published 2025).
# Molecular target: recombinant SARS-CoV-2 M^pro (Severe acute respiratory syndrome coronavirus 2 (2019-nCoV) (SARS-CoV-2), UniProt P0DTD1)
# Assay: Inhibition of SARS-CoV-2 M^pro enzyme activity (fluorescent substrate assay)
# Assay type: biochemical
# Conditions: inhibition of SARS-CoV-2 M^pro enzyme activity; values given in μM; read-out: IC50
row,SMILES,IC50
1,O=C(CCc1ccccc1)N[C@H](Cc1ccccc1)C(=O)C(=O)NCc1nccs1 [Compound 475],1.22 ± 0.1 µM
2,O=C(NCc1ncco1)C(=O)[C@@H](Cc1ccccc1)NC(=O)c1ccccc1 [Compound 457],51.5 ± 0.94 µM
3,O=C(NCc1cscn1)C(=O)[C@@H](Cc1ccccc1)NC(=O)[C@H]1CC(F)(F)CN1C(=O)C1CCCC(F)(F)C1 (stereo partly drawn) [Compound 434],2.05 ± 0.02 µM
4,O=C(NCc1nccs1)C(=O)[C@@H](Cc1cc(F)c(F)cc1F)NC(=O)c1ccccc1 [Compound 467],3.37 ± 0.18 µM
5,O=C(NCc1ccccn1)C(=O)[C@@H](Cc1ccccc1)NC(=O)[C@@H]1C[C@@H]2CCC[C@@H]2N1C(=O)C1CCC(F)(F)CC1 [Compound 263],1.56 ± 0.05 µM
6,COC[C@@H](NC(=O)C1CCCC(F)(F)C1)C(=O)N[C@H](Cc1ccccc1)C(=O)C(=O)NCc1ncno1 (stereo partly drawn) [Compound 563],> 2.5 µM

# Same assay, conditions: inhibition of SARS-CoV-2 M^pro enzyme activity; values in nM; read-out: IC50
row,SMILES,IC50
1,C[C@@H](NC(=O)CC1CCOC(C)(C)C1)C(=O)N[C@H](Cc1ccccc1)C(=O)C(=O)NCc1ccccn1 (stereo partly drawn) [Compound 136],0.0965 ± 0.0022 µM
2,COC[C@@H](NC(=O)NC1CC(F)(F)C1)C(=O)N[C@H](Cc1ccccc1)C(=O)C(=O)NCc1nccs1 [Compound 549],0.0212 ± 0.0006 µM
3,O=C(NCc1ccccn1)C(=O)[C@@H](Cc1ccccc1)NC(=O)C1(NC(=O)C2CC23CCC(F)(F)CC3)CC1 (stereo partly drawn) [Compound 166],0.0233 ± 0.0008 µM
4,"C[C@@H](NS(=O)(=O)c1ccc(F)cc1)C(=O)N[C@H](Cc1ccccc1)C(=O)C(=O)NCc1ccccn1 [Compound 331, (R)-3-((R)-2-((4-fluorophenyl)sulfonamido)propionamido)-2-oxo-4-phenyl-N-(pyridin-2-ylmethyl)butyramide]",0.101 ± 0.0028 µM
5,O=C(NCc1ccccn1)C(=O)[C@@H](Cc1ccccc1)NC(=O)[C@H](NC(=O)C1CCC(F)(F)CC1)C1CCOCC1 [Compound 230],0.0645 ± 0.0007 µM
6,CC1(C)[C@@H]2[C@@H](C(=O)N[C@H](Cc3ccccc3)C(=O)C(=O)NCc3ccccn3)N(C(=O)C3CCC(F)(F)CC3)C[C@@H]21 [Compound 262],0.9337 ± 0.005 µM
7,O=C(CNC(=O)C1CCCC(F)(F)C1)N[C@H](Cc1ccccc1)C(=O)C(=O)NCc1cscn1 (stereo partly drawn) [Compound 430],0.02 ± 0.0005 µM
8,C[C@@H](NC(=O)C1(c2ccccc2)CC1)C(=O)N[C@H](Cc1ccccc1)C(=O)C(=O)NCc1ccccn1 [Compound 74],0.0233 ± 0.0004 µM
9,O=C(NCc1ccccn1)C(=O)[C@@H](Cc1ccccc1)NC(=O)[C@H]1COCCN1C(=O)[C@H]1CC[C@@H](C(F)(F)F)CC1 [Compound 287],0.0241 µM
10,COC[C@@H](NC(=O)CC1CCC(F)(F)CC1)C(=O)N[C@H](Cc1ccccc1)C(=O)C(=O)NCc1cscn1 [Compound 432],0.0115 ± 0.0001 µM
11,O=C(CNC(=O)[C@@H]1C[C@@H]2[C@H](C1)C2(F)F)N[C@H](Cc1ccccc1)C(=O)C(=O)NCc1cscn1 [Compound 424],0.0207 ± 0.0002 µM
12,C[C@@H](NC(=O)CC1CCC(F)(F)CC1)C(=O)N[C@H](Cc1ccccc1)C(=O)C(=O)NCc1ccccn1 [Compound 111],0.0253 ± 0.0002 µM
13,O=C(Cn1cc(-c2cc(F)c(F)cc2F)cn1)N[C@H](Cc1ccccc1)C(=O)C(=O)NCc1nccs1 [Compound 506],0.105 ± 0.0029 µM
14,O=C(CNC(=O)C1CCC(F)(F)CC1)N[C@H](Cc1ccccc1)C(=O)C(=O)NCc1nccs1 [Compound 388],0.0629 ± 0.0081 µM
15,O=C(NCc1nccs1)C(=O)[C@@H](Cc1ccccc1)NC(=O)C1(NC(=O)C2CCC(F)(F)CC2)CC(F)(F)C1 [Compound 540],0.0269 ± 0.0001 µM
16,CC(C)(O)[C@@H](NC(=O)C1CCC(F)(F)CC1)C(=O)N[C@H](Cc1ccccc1)C(=O)C(=O)NCc1ccccn1 [Compound 241],0.0421 ± 0.0016 µM
17,C[C@@H](NC(=O)c1ccc(Cl)cc1F)C(=O)N[C@H](Cc1ccccc1)C(=O)C(=O)NCc1ccccn1 [Compound 100],0.013 ± 0.0014 µM
18,CC(C)[C@@H]1CC[C@@H](C)C[C@H]1OCC(=O)NC1(C(=O)N[C@H](Cc2ccccc2)C(=O)C(=O)NCc2ccccn2)CCC1 [Compound 206],0.018 ± 0.0005 µM
19,C[C@@H](OCc1ccc(Cl)c(Cl)c1)C(=O)N[C@H](Cc1ccccc1)C(=O)C(=O)NCc1ccccn1 [Compound 12],0.0123 ± 0.0008 µM
20,CC(C)(OCc1ccc(Cl)cc1)C(=O)N[C@H](Cc1ccccc1)C(=O)C(=O)NCc1nccs1 [Compound 485],0.0333 ± 0.0017 µM

row,SMILES,IC50
1,C[C@@H](NC(=O)C1(F)CCCCC1)C(=O)N[C@H](Cc1ccccc1)C(=O)C(=O)NCc1ccccn1 [Compound 128],0.0094 ± 0.0013 µM
2,O=C(NCc1ccccn1)C(=O)[C@@H](Cc1ccccc1)NC(=O)[C@@H]1[C@H]2CCC[C@H]2CN1C(=O)CC1CCC(F)(F)CC1 [Compound 259],0.0214 ± 0.0035 µM
3,O=C(CNC(=O)c1ccc(Cl)cc1)N[C@H](Cc1ccccc1)C(=O)C(=O)NCc1ccccn1 [Compound 439],0.0462 ± 0.0003 µM
4,CS(=O)(=O)CC[C@@H](NC(=O)C1CCCC(F)(F)C1)C(=O)N[C@H](Cc1ccccc1)C(=O)C(=O)NCc1nccs1 (stereo partly drawn) [Compound 568],0.0707 ± 0.0018 µM
5,CC(C)[C@@H](OCc1ccc(F)cc1)C(=O)N[C@H](Cc1ccccc1)C(=O)C(=O)NCc1ccc(Cl)cn1 [Compound 49],0.0147 ± 0.0004 µM
6,N#Cc1ccc(OCC(=O)NC2(C(=O)N[C@H](Cc3ccccc3)C(=O)C(=O)NCc3ccccn3)CCC2)cc1 [Compound 208],0.0371 ± 0.0017 µM
7,COc1ccc(OC(C)C(=O)N[C@H](C)C(=O)N[C@H](Cc2ccccc2)C(=O)C(=O)NCc2ccccn2)cc1 (stereo partly drawn) [Compound 87],0.0421 ± 0.001 µM
8,O=C(CC1CCC(F)(F)CC1)NCC(=O)N[C@H](Cc1ccccc1)C(=O)C(=O)NCc1cscn1 [Compound 422],0.0171 ± 0.0001 µM
9,O=C(NCc1ccccn1)C(=O)[C@@H](Cc1ccccc1)NC(=O)C1(NC(=O)C23CC4CC(CC(O)(C4)C2)C3)CCC1 [Compound 199],0.0527 ± 0.001 µM
10,CC(C)(NC(=O)[C@@H](NC(=O)c1cnccn1)C1CCCCC1)C(=O)N[C@H](Cc1ccccc1)C(=O)C(=O)NCc1ccccn1 [Compound 178],0.0175 ± 0.0005 µM
11,O=C(NCc1ccccn1)C(=O)[C@@H](Cc1ccccc1)NC(=O)[C@@H]1CC(F)(F)CN1C(=O)[C@@H]1C[C@@H]2[C@H](C1)C2(F)F [Compound 453],0.0372 ± 0.0002 µM
12,C[C@@H](NC(=O)[C@@H](NC(=O)NC1(CS(=O)(=O)C(C)(C)C)CCCCC1)C(C)(C)C)C(=O)N[C@H](Cc1ccccc1)C(=O)C(=O)NCc1ccccn1 [Compound 113],0.0691 ± 0.0081 µM
13,O=C(NCc1ccccn1)C(=O)[C@@H](Cc1ccccc1)NC(=O)C1(NC(=O)c2ccc(F)cc2)CC1 [Compound 170],0.0194 ± 0.0007 µM
14,COC[C@@H](NC(=O)N1CC(F)(F)C(F)(F)C1)C(=O)N[C@H](Cc1ccccc1)C(=O)C(=O)NCc1nccs1 [Compound 552],0.2009 ± 0.0016 µM
15,O=C(NCc1ccccn1)C(=O)[C@@H](Cc1ccccc1)NC(=O)C1(NC(=O)C23CC4(F)CC(F)(CC(F)(C4)C2)C3)CCC1 [Compound 203],0.0196 ± 0.0006 µM
16,CC(C)(C(=O)N[C@H](Cc1ccccc1)C(=O)C(=O)NCc1nccs1)n1cc(-c2cccc(OC(F)(F)F)c2)cn1 [Compound 529],0.2245 ± 0.0013 µM
17,C[C@@H](NC(=O)[C@H]1CC[C@@H](F)CC1)C(=O)N[C@H](Cc1ccccc1)C(=O)C(=O)NCc1ccccn1 [Compound 127],0.0408 ± 0.0006 µM
18,C[C@@H](NC(=O)C1CC12CCC(F)(F)CC2)C(=O)N[C@H](Cc1ccccc1)C(=O)C(=O)NCc1nccs1 (stereo partly drawn) [Compound 372],0.0106 ± 0.0004 µM
19,C[C@@H](NC(=O)C1CCCC(F)(F)C1)C(=O)N[C@H](Cc1ccccc1)C(=O)C(=O)NCc1cscn1 (stereo partly drawn) [Compound 416],0.019 ± 0.0004 µM
